This passage reports IC50, DC50 and Dmax results from patent US20250214991A1 (Oncopia Therapeutics, Inc. d/b/a/ SK Life Science Labs, priority 2022, published 2025).

In one assay the target is CRBN/DDB1 (Homo sapiens (Human), UniProt Q96SW2). Description: IC50 measurements for binding to CRBN/DDB1 (HTRF). The conditions noted are these: His tagged CRBN+DDB, Cy5-labeled Thalidomide probe, one hour. An outline of the steps:
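HTRF competition binding with 2 nM His-tagged CRBN-DDB1 complex, 60 nM Cy5-thalidomide probe and 0.4 nM anti-His Tb cryptate in 50 mM HEPES pH 7.5, 1 mM TCEP, 0.01% Brij-35, 50 mM NaCl, 0.1% BSA. Read after 1 h at room temperature; IC50 from four-parameter dose-response fit.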
A general note: TR-FRET usually uses a lanthanide donor and a delayed reading to cut background.

Another assay deals with IKZF2 (Homo sapiens (Human), UniProt Q96SW2+Q9UKS7). Description: In vitro IKZF2 HiBit Assay (HEK293T Flp-in-HiBiT cells). Type of assay: cell-based. The settings on record: HEK293T Flp-in-HiBiT cells, 6 hrs incubation; for DC50: read-out: IKZF2 HiBit DC50; for Dmax: HEK-293T, read-out: IKZF2 HiBit Dmax (%). In outline:
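HEK293T Flp-in cells carrying an endogenous N-terminal HiBiT tag on IKZF2 were exposed to compound for 6 h at 0.1% DMSO. The dilution series was 11 doses at 3-fold, diluted from 1 mM. Nano-Glo HiBiT lytic luminescence, normalized to DMSO, gave DC50 for 50% degradation and Dmax across the concentration range, both reported in letter bins.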
In general terms: HiBiT is a short tag that completes a luciferase, so light tracks the accessible tagged protein.

For another assay, the target named is IKZF1 (Homo sapiens (Human), UniProt Q13422+Q96SW2). The experiment in a line: In vitro IKZF1 HiBit Assay (HEK293T Flp-in-HiBiT-IKZF1 stable cell line). Type of assay: cell-based. The settings on record: HEK293T Flp-in-HiBiT-IKZF1 stable cell line, 6 hrs incubation; for DC50: read-out: IKZF1 HiBit DC50; for Dmax: HEK-293T, read-out: IKZF1 HiBit Dmax (%). In outline:
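HEK293T Flp-in cells carrying N-terminal HiBiT-tagged IKZF1 were exposed to compound (0.1% DMSO) for 6 h at 3000 cells/well. HiBiT luminescence was read after lytic LgBiT detection. DC50 and Dmax were taken from DMSO-normalized dose-response curves.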

CRBN/DDB1, sequence (Q96SW2 whole entry, species assumed): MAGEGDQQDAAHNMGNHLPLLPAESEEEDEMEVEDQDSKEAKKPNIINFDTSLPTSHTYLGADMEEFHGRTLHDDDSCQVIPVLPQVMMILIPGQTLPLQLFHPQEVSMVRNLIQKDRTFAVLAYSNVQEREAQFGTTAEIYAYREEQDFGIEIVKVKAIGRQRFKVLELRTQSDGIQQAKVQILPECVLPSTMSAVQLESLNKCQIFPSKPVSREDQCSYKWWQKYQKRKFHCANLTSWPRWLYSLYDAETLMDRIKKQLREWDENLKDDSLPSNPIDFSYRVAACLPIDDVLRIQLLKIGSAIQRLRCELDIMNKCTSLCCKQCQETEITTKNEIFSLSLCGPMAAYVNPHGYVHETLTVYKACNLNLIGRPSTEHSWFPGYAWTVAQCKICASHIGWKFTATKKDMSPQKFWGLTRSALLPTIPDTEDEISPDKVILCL
CRBN/DDB1, sequence (Q16531 whole entry partner, species assumed): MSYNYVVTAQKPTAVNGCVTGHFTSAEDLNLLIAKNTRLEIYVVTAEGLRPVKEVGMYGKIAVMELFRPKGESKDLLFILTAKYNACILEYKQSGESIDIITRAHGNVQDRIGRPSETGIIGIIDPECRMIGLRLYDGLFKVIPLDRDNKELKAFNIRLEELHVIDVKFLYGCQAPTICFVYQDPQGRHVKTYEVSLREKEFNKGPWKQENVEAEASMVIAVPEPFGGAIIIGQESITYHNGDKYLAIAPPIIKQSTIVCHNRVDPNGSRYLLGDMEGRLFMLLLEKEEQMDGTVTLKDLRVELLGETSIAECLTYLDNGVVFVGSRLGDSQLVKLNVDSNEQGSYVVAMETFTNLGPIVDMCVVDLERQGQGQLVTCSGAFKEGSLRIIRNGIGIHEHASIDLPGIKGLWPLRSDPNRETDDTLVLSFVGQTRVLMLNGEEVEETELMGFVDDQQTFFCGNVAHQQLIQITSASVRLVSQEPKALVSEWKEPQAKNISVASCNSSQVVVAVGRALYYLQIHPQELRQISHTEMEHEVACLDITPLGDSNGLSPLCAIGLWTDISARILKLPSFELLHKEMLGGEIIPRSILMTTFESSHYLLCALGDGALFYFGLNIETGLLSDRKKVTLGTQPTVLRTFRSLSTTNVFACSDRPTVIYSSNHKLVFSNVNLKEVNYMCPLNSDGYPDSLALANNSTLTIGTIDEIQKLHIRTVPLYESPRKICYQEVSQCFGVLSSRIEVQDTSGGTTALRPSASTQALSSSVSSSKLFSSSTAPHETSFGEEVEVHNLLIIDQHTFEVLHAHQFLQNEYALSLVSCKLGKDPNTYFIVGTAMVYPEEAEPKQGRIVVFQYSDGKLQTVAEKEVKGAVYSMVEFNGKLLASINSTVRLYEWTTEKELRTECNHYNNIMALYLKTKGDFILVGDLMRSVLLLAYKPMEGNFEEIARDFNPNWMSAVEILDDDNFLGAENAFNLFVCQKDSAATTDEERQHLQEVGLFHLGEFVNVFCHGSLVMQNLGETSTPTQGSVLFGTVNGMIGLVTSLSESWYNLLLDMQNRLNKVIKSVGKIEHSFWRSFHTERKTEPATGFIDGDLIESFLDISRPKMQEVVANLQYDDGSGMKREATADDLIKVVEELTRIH
IKZF1, sequence (Q13422 whole entry): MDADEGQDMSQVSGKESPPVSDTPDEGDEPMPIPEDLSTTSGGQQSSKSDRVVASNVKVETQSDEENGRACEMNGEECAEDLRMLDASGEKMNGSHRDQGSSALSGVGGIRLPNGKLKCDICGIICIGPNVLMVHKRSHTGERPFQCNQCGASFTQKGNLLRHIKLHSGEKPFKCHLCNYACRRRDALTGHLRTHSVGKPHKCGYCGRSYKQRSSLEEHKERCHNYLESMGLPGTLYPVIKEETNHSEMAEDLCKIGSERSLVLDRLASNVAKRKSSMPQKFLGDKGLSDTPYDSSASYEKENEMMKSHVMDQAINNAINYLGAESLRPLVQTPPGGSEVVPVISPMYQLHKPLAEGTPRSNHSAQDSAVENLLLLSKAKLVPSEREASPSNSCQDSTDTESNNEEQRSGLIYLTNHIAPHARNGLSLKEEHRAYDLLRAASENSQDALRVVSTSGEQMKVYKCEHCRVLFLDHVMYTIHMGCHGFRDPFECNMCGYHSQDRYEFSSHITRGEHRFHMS
IKZF1, sequence (Q96SW2 whole entry): as the sequence (Q96SW2 whole entry, species assumed) above
IKZF1, sequence (Q16531 2-1140 partner): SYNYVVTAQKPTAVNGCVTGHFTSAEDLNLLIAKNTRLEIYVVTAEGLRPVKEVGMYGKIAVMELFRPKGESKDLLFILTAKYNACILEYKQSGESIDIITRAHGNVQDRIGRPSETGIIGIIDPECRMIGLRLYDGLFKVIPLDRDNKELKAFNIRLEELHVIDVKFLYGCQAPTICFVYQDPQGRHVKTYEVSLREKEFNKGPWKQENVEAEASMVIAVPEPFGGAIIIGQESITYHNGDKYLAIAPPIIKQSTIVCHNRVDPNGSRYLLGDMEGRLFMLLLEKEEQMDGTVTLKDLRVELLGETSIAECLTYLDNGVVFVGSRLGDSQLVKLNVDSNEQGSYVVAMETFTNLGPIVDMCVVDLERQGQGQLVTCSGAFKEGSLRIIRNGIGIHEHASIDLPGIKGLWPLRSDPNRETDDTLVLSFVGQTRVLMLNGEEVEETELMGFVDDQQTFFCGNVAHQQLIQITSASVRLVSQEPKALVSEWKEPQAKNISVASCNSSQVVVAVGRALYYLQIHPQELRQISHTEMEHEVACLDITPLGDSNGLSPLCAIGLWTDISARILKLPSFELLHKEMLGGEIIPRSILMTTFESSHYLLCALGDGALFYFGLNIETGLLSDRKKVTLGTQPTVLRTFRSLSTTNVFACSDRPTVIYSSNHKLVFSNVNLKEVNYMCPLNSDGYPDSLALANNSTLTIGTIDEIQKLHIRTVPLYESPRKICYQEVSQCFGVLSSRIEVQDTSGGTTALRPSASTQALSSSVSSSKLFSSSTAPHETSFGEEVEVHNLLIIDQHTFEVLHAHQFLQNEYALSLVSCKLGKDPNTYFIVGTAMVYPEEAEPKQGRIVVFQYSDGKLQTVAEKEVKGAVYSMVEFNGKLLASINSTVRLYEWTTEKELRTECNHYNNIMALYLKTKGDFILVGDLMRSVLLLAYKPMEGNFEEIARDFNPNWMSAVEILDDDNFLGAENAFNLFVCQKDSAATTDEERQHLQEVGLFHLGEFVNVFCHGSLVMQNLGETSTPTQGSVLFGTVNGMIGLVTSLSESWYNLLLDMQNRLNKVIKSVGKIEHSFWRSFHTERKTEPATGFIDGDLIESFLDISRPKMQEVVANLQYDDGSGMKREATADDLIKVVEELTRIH
IKZF2, sequence (Q9UKS7 whole entry): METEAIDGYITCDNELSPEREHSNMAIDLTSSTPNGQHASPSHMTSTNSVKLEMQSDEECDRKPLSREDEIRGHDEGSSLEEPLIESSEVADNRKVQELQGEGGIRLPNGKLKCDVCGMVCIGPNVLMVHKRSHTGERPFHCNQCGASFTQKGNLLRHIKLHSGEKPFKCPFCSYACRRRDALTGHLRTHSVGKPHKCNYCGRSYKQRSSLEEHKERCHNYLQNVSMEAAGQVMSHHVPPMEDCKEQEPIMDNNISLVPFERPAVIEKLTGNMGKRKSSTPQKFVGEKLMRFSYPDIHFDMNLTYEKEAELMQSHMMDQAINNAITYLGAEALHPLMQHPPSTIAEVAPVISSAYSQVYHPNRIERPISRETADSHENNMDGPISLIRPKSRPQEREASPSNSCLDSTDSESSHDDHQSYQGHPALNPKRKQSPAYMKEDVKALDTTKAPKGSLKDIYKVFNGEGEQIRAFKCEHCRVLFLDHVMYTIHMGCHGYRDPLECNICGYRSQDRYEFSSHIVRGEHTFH
IKZF2, sequence (Q96SW2 whole entry): as the sequence (Q96SW2 whole entry, species assumed) above
IKZF2, sequence (Q16531 2-1140 partner): as the sequence (Q16531 2-1140 partner) above

Regarding `CN(C)CC1CCN(Cc2cc(-c3ccc4c(c3)CN(C3CCC(=O)NC3=O)C4=O)nc3[nH]ccc23)C1` (stereo not drawn) [Example 123], the IC50 (usually the point on the concentration scale where inhibition reaches its midpoint) on CRBN/DDB1 is 100 to 500 nM. Moreover, the figures for the DC50 at IKZF2 and at IKZF1 were 1 to 10 nM and 10 to 100 nM, respectively. Moreover, the Dmax at IKZF2 is over 80%; at IKZF1 it was 20 to 40%.
For `Cn1ccc2c(C(=O)N3CCCC3)cc(-c3ccc4c(c3)CN(C3CCC(=O)NC3=O)C4=O)nc21` (stereo not drawn) [Example 89, 3-(5-(1-methyl-4-(pyrrolidine-1-carbonyl)-1H-pyrrolo[2,3-b]pyridin-6-yl)-1-oxoisoindolin-2-yl) piperidine-2,6-dione] the same measures were 500 to 1000 nM, 100 to 1000 nM, over 10000 nM, 20 to 40% and under 20%.
The like results for `COC1CCN(Cc2cc(-c3ccc4c(c3)CN(C3CCC(=O)NC3=O)C4=O)nc3c2ccn3C)C1` (stereo not drawn) [Example 93, 3-(5-(4-((3-methoxypyrrolidin-1-yl)methyl)-1-methyl-1H-pyrrolo[2,3-b]pyridin-6-yl)-1-oxoisoindolin-2-yl) piperidine-2,6-dione] were, in that order, 100 to 500 nM, under 1 nM, 10 to 100 nM, over 80% and 20 to 40%.
For `O=C1CCC(N2Cc3cc(-c4cc(CN5CCCC5)c5[nH]nc(C6CCC6)c5n4)ccc3C2=O)C(=O)N1` (stereo not drawn) [Example 224, 3-(5-(3-cyclobutyl-7-(pyrrolidin-1-ylmethyl)-1H-pyrazolo[4,3-b]pyridin-5-yl)-1-oxoisoindolin-2-yl) piperidine-2,6-dione] the same measures were 1000 to 5000 nM, under 1 nM, 10 to 100 nM, 60 to 80% and 40 to 60%.
As for `O=C1CCC(N2Cc3cc(-c4cc(CN5CCCC5)c5[nH]nc(NC6COC6)c5n4)ccc3C2=O)C(=O)N1` (stereo not drawn) [Example 204, 3-(5-(3-(oxetan-3-ylamino)-7-(pyrrolidin-1-ylmethyl)-1H-pyrazolo[4,3-b]pyridin-5-yl)-1-oxoisoindolin-2-yl) piperidine-2,6-dione], on CRBN/DDB1, the IC50 fell in the range of 1000 to 5000 nM. Moreover, on IKZF2, the DC50 was in the range of 1000 to 10000 nM and the Dmax was under 20%. Besides, at IKZF1, the DC50 was over 10000 nM and the Dmax was under 20%.
Consider `O=C1CCC(N2Cc3cc(-c4cc(CN5CCC6(CC5)COC6)c5ccn(C6COC6)c5n4)ccc3C2=O)C(=O)N1` (stereo not drawn) [Example 188, 3-(5-(4-((2-oxa-7-azaspiro[3.5]nonan-7-yl)methyl)-1-(oxetan-3-yl)-1H-pyrrolo[2,3-b]pyridin-6-yl)-1-oxoisoindolin-2-yl) piperidine-2,6-dione], for which the IC50 at CRBN/DDB1 was in the range of 500 to 1000 nM. Also, at IKZF2, the DC50 lay in the range of 1 to 10 nM and the Dmax is 60 to 80%. Besides, at IKZF1, the DC50 is over 10000 nM and the Dmax was under 20%.
The like results for `Cn1ccc2c(CN3CCC(O)CC3)cc(-c3ccc4c(c3)CN(C3CCC(=O)NC3=O)C4=O)nc21` (stereo not drawn) [Example 305, 3-(5-(4-((4-hydroxypiperidin-1-yl)methyl)-1-methyl-1H-pyrrolo[2,3-b]pyridin-6-yl)-1-oxoisoindolin-2-yl) piperidine-2,6-dione] were, in that order, 1000 to 5000 nM, 1 to 10 nM, over 80%, over 10000 nM and under 20%.
The like results for `Cn1ccc2c(CN3CCC(C#N)CC3)cc(-c3ccc4c(c3)CN(C3CCC(=O)NC3=O)C4=O)nc21` (stereo not drawn) [Example 309, 1-((6-(2-(2,6-dioxopiperidin-3-yl)-1-oxoisoindolin-5-yl)-1-methyl-1H-pyrrolo[2,3-b]pyridin-4-yl)methyl) piperidine-4-carbonitrile] were, in that order, 1000 to 5000 nM, 1 to 10 nM, over 80%, 1000 to 10000 nM and 20 to 40%.
`O=C1CCC(N2Cc3cc(-c4cc(CN5CCCC5)c5ccn(C6CNC6)c5n4)ccc3C2=O)C(=O)N1` (stereo not drawn) [Example 168, 3-(5-(1-(azetidin-3-yl)-4-(pyrrolidin-1-ylmethyl)-1H-pyrrolo[2,3-b]pyridin-6-yl)-1-oxoisoindolin-2-yl) piperidine-2,6-dione]: the concentration for half-maximal inhibition (IC50) on CRBN/DDB1 is 500 to 1000 nM. At IKZF2, the DC50 was 100 to 1000 nM and the Dmax was in the range of 60 to 80%. Moreover, at IKZF1, the DC50 is 1000 to 10000 nM and the Dmax is 20 to 40%.
The like results for `Cn1ccc2c(CN3CCC(F)(F)CC3)cc(-c3ccc4c(c3)CN(C3CCC(=O)NC3=O)C4=O)nc21` (stereo not drawn) [Example 60, 3-(5-(4-((4,4-difluoropiperidin-1-yl)methyl)-1-methyl-1H-pyrrolo[2,3-b]pyridin-6-yl)-1-oxoisoindolin-2-yl) piperidine-2,6-dione] were, in that order, 500 to 1000 nM, 1 to 10 nM, 60 to 80%, over 10000 nM and under 20%.
The like results for `CCn1ccc2c(CN3CCCC3)cc(-c3ccc4c(c3)CN(C3CCC(=O)NC3=O)C4=O)nc21` (stereo not drawn) [Example 74, 3-(5-(1-ethyl-4-(pyrrolidin-1-ylmethyl)-1H-pyrrolo[2,3-b]pyridin-6-yl)-1-oxoisoindolin-2-yl) piperidine-2,6-dione] were, in that order, 500 to 1000 nM, 1 to 10 nM, over 80%, over 10000 nM and under 20%.
For `Cn1ccc2c(CN3CC4CCC(C4)C3)cc(-c3ccc4c(c3)CN(C3CCC(=O)NC3=O)C4=O)nc21` (stereo not drawn) [Example 308, 3-(5-(4-((3-azabicyclo[3.2.1]octan-3-yl)methyl)-1-methyl-1H-pyrrolo[2,3-b]pyridin-6-yl)-1-oxoisoindolin-2-yl) piperidine-2,6-dione] the same measures were 100 to 500 nM, 1 to 10 nM, over 80%, 1 to 10 nM and 20 to 40%.
In turn, `O=C1CCC(N2Cc3cc(-c4cc(CN5CCCC5)c5ccn(Cc6ccccc6)c5n4)ccc3C2=O)C(=O)N1` (stereo not drawn) [Example 147, 3-(5-(1-benzyl-4-(pyrrolidin-1-ylmethyl)-1H-pyrrolo[2,3-b]pyridin-6-yl)-1-oxoisoindolin-2-yl) piperidine-2,6-dione] returned an IC50 at CRBN/DDB1 of 100 to 500 nM. Further, on IKZF2, the DC50 fell in the range of 1 to 10 nM and the Dmax fell in the range of 40 to 60%. On IKZF1, the DC50 was over 10000 nM and the Dmax is under 20%.
The like results for `Cn1ccc2c(CN3CCCC3)cc(-c3cc4c(cc3Cl)C(=O)N(C3CCC(=O)NC3=O)C4)nc21` (stereo not drawn) [Example 83, 3-(6-chloro-5-(1-methyl-4-(pyrrolidin-1-ylmethyl)-1H-pyrrolo[2,3-b]pyridin-6-yl)-1-oxoisoindolin-2-yl) piperidine-2,6-dione] were, in that order, 1000 to 5000 nM, 1 to 10 nM, over 80%, over 10000 nM and under 20%.
For `COCC1CCCN1Cc1cc(-c2ccc3c(c2)CN(C2CCC(=O)NC2=O)C3=O)nc2c1ccn2C` (stereo not drawn) [Example 106, 3-(5-(4-((2-(methoxymethyl)pyrrolidin-1-yl)methyl)-1-methyl-1H-pyrrolo[2,3-b]pyridin-6-yl)-1-oxoisoindolin-2-yl) piperidine-2,6-dione] the same measures were 100 to 500 nM, 1 to 10 nM, over 80%, over 10000 nM and under 20%.
